Experimental data taken from patent EP4483954A1 (Masarykova Univerzita, priority 2023, dated 2025).

Columns and labels:
Assay type in all cases: biochemical
CDKL3(h) = biological target: T1, CDKL3(h) (Homo sapiens, UniProt Q8IVW4); test: radiometric kinase assay (KinaseProfiler, Eurofins), CDKL3; conditions: in vitro radiometric kinase assay, tested at 1 nM to 10 000 nM, no pre-incubation; read-out: inhibitory activities (IC50 values) CDKL3
T1 construct: purchased Eurofins (KinaseProfiler)
Description: (§1) The compounds were profiled in the radiometric assays (KinaseProfiler, Eurofins).
(§2) Briefly, kinases were diluted in the buffer shown below prior to addition to the reaction mix: • CDKL3, TAF1L: 20 mM Tris/HCl pH 8.5, 0.2 mM EDTA, 0.1% β-mercaptoethanol, 0.01% Brij-35, 5% glycerol, 1 mg/ml BSA; • Haspin: 15 mM MOPS, 0.75 mM EDTA, 0.0075% Brij-35, 3.75% Glycerol, 150 mM NaCl, 0.1% β-mercaptoethanol, 1 mg/mLBSA; • CDKL4, CLK2, PIM1, TRB2: […], 1 mM EDTA, 0.01% Brij-35, 5% Glycerol, 0.1% β-mercaptoethanol, 1 mg/mL BSA.
(§3) All compounds were prepared to 50x final assay concentration in 100% DMSO. This working stock of the compound was added to the assay well as the first component in the reaction, followed by the remaining components as detailed in the general assay protocols below. There was no pre-incubation step between the compound and the kinase prior to initiation of the reaction.
CDKL3(h) was incubated with 8 mM MOPS pH 7.0, 0.2 mM EDTA, 250 µM RRRFRPASPLRGPPK (SEQ ID NO. 1), 10 mM magnesium acetate and γ-^33P-ATP (specific activity and concentration as required). The reaction was initiated by the addition of the Mg/ATP mix. After incubation for 120 minutes at room temperature, the reaction was stopped by the addition of phosphoric acid to a concentration of 0.5%. An aliquot of the stopped reaction was spotted onto a filter and washed four times for 4 minutes in 0.425% phosphoric acid and once in methanol prior to drying and scintillation counting.
(§4) Kinase activity data were expressed as the percent remaining kinase activity in tested samples compared to the vehicle (DMSO) reactions. The compounds were tested at the following concentrations: 1 nM, 3 nM, 10 nM, 30 nM, 100 nM, 300 nM, 1000 nM, 3000 nM, and 10 000 nM; IC50 values and curve fits were then obtained.

DYRK2 (h) = biological target: T2, DYRK2 (h) (Homo sapiens, UniProt Q92630); test: radiometric kinase assay (KinaseProfiler, Eurofins), DYRK2; conditions: in vitro radiometric kinase assay, tested at 1 nM to 10 000 nM, no pre-incubation; read-out: inhibitory activities (IC50 values) DYRK2
T2 construct: purchased Eurofins (KinaseProfiler)
T2 sequence (Q92630 1-601): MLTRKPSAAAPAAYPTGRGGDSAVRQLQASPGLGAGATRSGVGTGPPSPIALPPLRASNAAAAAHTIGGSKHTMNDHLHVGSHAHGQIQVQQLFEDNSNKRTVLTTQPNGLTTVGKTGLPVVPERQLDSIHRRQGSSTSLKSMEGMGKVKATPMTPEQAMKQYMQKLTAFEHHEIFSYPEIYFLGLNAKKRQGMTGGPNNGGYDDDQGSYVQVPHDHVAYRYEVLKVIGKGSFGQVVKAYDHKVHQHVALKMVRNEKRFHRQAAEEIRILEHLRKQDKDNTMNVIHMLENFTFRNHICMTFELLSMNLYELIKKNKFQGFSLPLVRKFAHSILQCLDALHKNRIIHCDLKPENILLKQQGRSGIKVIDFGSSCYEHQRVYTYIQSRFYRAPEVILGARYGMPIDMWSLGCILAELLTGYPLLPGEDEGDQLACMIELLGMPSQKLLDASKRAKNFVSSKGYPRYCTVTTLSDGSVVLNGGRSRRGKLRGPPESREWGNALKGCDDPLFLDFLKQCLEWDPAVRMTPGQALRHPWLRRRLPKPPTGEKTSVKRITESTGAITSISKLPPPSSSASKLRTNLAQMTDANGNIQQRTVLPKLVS
Description: as §1, §3
DYRK2 (h) was incubated with 8 mM MOPS pH 7.0, 0.2 mM EDTA, 2 mg/mL casein, 10 mM magnesium acetate and γ-^33P-ATP (specific activity and concentration as required). The reaction was initiated by the addition of the Mg/ATP mix. After incubation for 40 minutes at room temperature, the reaction was stopped by the addition of phosphoric acid to a concentration of 0.5%. An aliquot of the reaction was then spotted onto a filter and washed four times for 4 minutes in 0.425% phosphoric acid and once in methanol prior to drying and scintillation counting.
as §4

Haspin (h) = biological target: T3, Haspin (h) (Homo sapiens, UniProt Q8TF76); test: radiometric kinase assay (KinaseProfiler, Eurofins), Haspin; conditions: in vitro radiometric kinase assay, tested at 1 nM to 10 000 nM, no pre-incubation; read-out: inhibitory activities (IC50 values) Haspin
T3 construct: purchased Eurofins (KinaseProfiler)
T3 sequence (Q8TF76 1-798): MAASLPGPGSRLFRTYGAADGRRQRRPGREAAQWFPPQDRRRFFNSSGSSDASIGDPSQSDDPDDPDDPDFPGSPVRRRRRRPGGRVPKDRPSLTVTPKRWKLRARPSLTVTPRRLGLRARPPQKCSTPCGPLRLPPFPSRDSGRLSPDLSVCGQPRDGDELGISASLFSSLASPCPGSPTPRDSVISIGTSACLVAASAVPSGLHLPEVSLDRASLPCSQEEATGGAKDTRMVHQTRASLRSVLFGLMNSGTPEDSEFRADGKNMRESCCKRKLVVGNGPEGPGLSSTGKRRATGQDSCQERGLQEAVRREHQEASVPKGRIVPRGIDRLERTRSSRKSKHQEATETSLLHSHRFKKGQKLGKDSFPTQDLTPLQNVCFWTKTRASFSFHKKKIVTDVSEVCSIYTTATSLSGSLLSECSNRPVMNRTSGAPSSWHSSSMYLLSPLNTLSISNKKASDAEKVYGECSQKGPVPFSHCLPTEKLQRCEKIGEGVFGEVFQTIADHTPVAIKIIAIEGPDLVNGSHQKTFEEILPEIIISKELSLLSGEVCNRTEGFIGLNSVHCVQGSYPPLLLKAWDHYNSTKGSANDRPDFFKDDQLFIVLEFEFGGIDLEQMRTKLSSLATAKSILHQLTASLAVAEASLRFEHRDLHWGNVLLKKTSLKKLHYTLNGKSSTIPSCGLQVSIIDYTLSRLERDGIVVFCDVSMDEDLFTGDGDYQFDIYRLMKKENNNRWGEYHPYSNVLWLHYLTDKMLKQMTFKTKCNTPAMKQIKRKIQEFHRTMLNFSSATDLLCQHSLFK
Description: as §1, §2, §3
Haspin (h) was incubated with 8 mM MOPS pH 7.0, 0.2 mM EDTA, 500 µM RARTLSFAEPG (SEQ ID NO. 3), 10 mM magnesium acetate and γ-^33P-ATP (specific activity and concentration as required). The reaction was initiated by the addition of the Mg/ATP mix. After incubation for 40 minutes at room temperature, the reaction was stopped by the addition of phosphoric acid to a concentration of 0.5%. An aliquot of the reaction was then spotted onto a filter and washed four times for 4 minutes in 0.425% phosphoric acid and once in methanol prior to drying and scintillation counting.
as §4

T1 sequence (Q8IVW4 whole entry): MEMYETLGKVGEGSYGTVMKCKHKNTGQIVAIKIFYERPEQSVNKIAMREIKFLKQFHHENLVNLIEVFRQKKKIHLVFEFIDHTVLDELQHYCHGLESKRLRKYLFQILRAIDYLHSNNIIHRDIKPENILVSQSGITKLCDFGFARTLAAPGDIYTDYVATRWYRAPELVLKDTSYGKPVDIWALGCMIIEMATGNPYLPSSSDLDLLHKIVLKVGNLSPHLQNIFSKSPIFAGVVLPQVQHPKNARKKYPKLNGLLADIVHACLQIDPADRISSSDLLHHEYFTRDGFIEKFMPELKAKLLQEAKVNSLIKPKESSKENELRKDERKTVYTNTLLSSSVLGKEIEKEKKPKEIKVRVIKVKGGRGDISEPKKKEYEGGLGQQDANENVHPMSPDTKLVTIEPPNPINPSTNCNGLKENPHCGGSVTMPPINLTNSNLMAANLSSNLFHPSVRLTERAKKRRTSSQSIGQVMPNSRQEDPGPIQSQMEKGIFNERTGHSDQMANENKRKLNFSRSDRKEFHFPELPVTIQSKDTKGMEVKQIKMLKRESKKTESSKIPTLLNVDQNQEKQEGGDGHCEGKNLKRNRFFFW

Structure (SMILES)	IC50 (CDKL3(h)) [nM]	IC50 (DYRK2 (h)) [nM]	IC50 (Haspin (h)) [nM]
Cn1cc(-c2csc3ccc(Oc4ccccc4)nc23)cn1 [Preparative Example 139, 3-(1-methyl-1H-pyrazol-4-yl)-5-phenoxythieno[3,2-b]pyridine]	3000 to 10000	3000 to 10000	100 to 499
c1ccc(Cn2cc(-c3ccc4scc(-c5ccncc5)c4n3)cn2)cc1 [Preparative Example 81, 5-(1-benzyl-1H-pyrazol-4-yl)-3-(pyridin-4-yl)thieno[3,2-b]pyridine]	500 to 3000	3000 to 10000	100 to 499
Cc1cnccc1-c1csc2ccc(-c3cnn(C)c3)nc12 [Preparative Example 32, 5-(1-methyl-1H-pyrazol-4-yl)-3-(3-methylpyridin-4-yl)thieno[3,2-b]pyridine]	500 to 3000	3000 to 10000	3000 to 10000
Cc1cc2scc(-c3ccncc3)c2nc1-c1ccn(C)n1 [Preparative Example 151, 6-methyl-5-(1-methyl-1H-pyrazol-3-yl)-3-(pyridin-4-yl)thieno[3,2-b]pyridine]	3000 to 10000	3000 to 10000	20 to 99
Cc1cc2scc(-c3ccncc3)c2nc1-c1cnn(C)c1 [Preparative Example 150, 6-methyl-5-(1-methyl-1H-pyrazol-4-yl)-3-(pyridin-4-yl)thieno[3,2-b]pyridine]	500 to 3000	3000 to 10000	500 to 3000
CCn1cc(-c2ccc3scc(-c4ccncc4)c3n2)cn1 [Preparative Example 77, 5-(1-ethyl-1H-pyrazol-4-yl)-3-(pyridin-4-yl)thieno[3,2-b]pyridine]	500 to 3000	500 to 3000	500 to 3000
FC(F)(F)n1cc(-c2ccc3scc(-c4ccncc4)c3n2)cn1 [Preparative Example 78, 3-(pyridin-4-yl)-5-(1-(trifluoromethyl)-1H-pyrazol-4-yl)thieno[3,2-b]pyridine]	500 to 3000	3000 to 10000	3000 to 10000
Cc1nsc(-c2csc3ccc(-c4cnn(C)c4)nc23)n1 [Preparative Example 71, 3-(3-methyl-1,2,4-thiadiazol-5-yl)-5-(1-methyl-1H-pyrazol-4-yl)thieno[3,2-b]pyridine]	100 to 499	100 to 499	20 to 99
Cn1cc(-c2ccc3scc(-c4ccns4)c3n2)cn1 [Preparative Example 67, 3-(isothiazol-5-yl)-5-(1-methyl-1H-pyrazol-4-yl)thieno[3,2-b]pyridine]	20 to 99	100 to 499	20 to 99
Cn1cc(-c2ccc3scc(C4=CCNCC4)c3n2)cn1 [Preparative Example 9, 5-(1-methyl-1H-pyrazol-4-yl)-3-(1,2,3,6-tetrahydropyridin-4-yl)-thieno[3.2-b]pyridine]	500 to 3000	3000 to 10000	500 to 3000
c1cc(-c2csc3ccc(Nc4cc[nH]n4)nc23)ccn1 [Preparative Example 101, N-(1H-pyrazol-3-yl)-3-(pyridin-4-yl)thieno[3,2-b]pyridin-5-amine]	20 to 99	500 to 3000	20 to 99
Cn1cc(-c2ccc3scc(C(O)c4ccccc4)c3n2)cn1 (stereo not drawn) [Preparative Example 74]	100 to 499	3000 to 10000	3000 to 10000
Cn1ccc(-c2cc(Cl)c3scc(-c4ccncc4)c3n2)n1 [Preparative Example 163, 7-chloro-5-(1-methyl-1H-pyrazol-3-yl)-3-(pyridin-4-yl)thieno[3,2-b]pyridine]	500 to 3000	3000 to 10000	100 to 499
Cn1cc(-c2ccc3scc(-c4ccnc(C#N)c4)c3n2)cn1	100 to 499	500 to 3000	100 to 499
COc1cc(-c2csc3ccc(-c4cnn(C)c4)nc23)ccn1 [Preparative Example 17, 3-(2-methoxypyridin-4-yl)-5-(1-methyl-1H-pyrazol-4-yl)thieno[3.2-b]pyridine]	100 to 499	100 to 499	100 to 499
Cn1cc(-c2ccc3scc(-c4ccncc4)c3n2)c(N)n1 [Preparative Example 84, 1-methyl-4-(3-(pyridin-4-yl)thieno[3,2-b]pyridin-5-yl)-1H-pyrazol-3-amine]	500 to 3000	3000 to 10000	3000 to 10000
Cn1cc(-c2ccc3scc(-c4ccncc4F)c3n2)cn1 [Preparative Example 36, 3-(3-fluoropyridin-4-yl)-5-(1-methyl-1H-pyrazol-4-yl)thieno[3,2-b]pyridine]	100 to 499	500 to 3000	100 to 499
Cn1cc(-c2cc(Cl)c3scc(-c4ccncc4)c3n2)cn1 [Preparative Example 162, 7-chloro-5-(1-methyl-1H-pyrazol-4-yl)-3-(pyridin-4-yl)thieno[3,2-b]pyridine]	100 to 499	3000 to 10000	500 to 3000
Cn1ccc(-c2ccc3scc(-c4ccncc4)c3n2)n1 [Preparative Example 86, 5-(1-methyl-1H-pyrazol-3-yl)-3-(pyridin-4-yl)thieno[3,2-b]pyridine]	500 to 3000	3000 to 10000	20 to 99
Cn1cc(-c2ccc3scc(-c4ccnnc4)c3n2)cn1 [Preparative Example 40, 5-(1-methyl-1H-pyrazol-4-yl)-3-(pyridazin-4-yl)thieno[3,2-b]-pyridine]	500 to 3000	500 to 3000	100 to 499
